In patent US9814714B2, “Kinase modulation, and indications therefor” (Plexxikon Inc., priority 2015, dated 2017):

Tested on: pERK in A431 cells (over-expression of EGFR)
Test: pERK levels in A431
Assay type: cell-based
Details: human SCC cell line
Description: The compound of Formula II was also evaluated in the human SCC cell line A431 and the human breast adenocarcinoma cell line SKBR3 as these cells achieve MAPK pathway activation by upstream signals feeding into RAS (through over-expression of EGFR and HER2, respectively).
Phospho-ERK AlphaScreen® assay: The degree of ERK phosphorylation was determined using an AlphaScreen® assay where an increase in ERK1/2 phosphorylation at Thr202/Tyr204 brought the donor and acceptor AlphaScreen® beads into close proximity, generating a signal for quantification. To determine the effects of compound treatment on phosphorylation of ERK1/2, cells were plated in a 96-well plate and treated with an 8-point titration of compound for one hour at 37° C. before lysis. To detect pERK, cell lysates were incubated with streptavidin-coated AlphaScreen® donor beads, anti-mouse IgG AlphaScreen® acceptor beads, a biotinylated anti-ERK1/2 rabbit antibody, and a mouse antibody that recognizes ERK1/2 only when it is phosphorylated on Thr202 and Tyr204. […] An increase in ERK1/2 phosphorylation at Thr202/Tyr204 brings the donor and acceptor AlphaScreen® beads into close proximity, generating a signal that can be quantified on an EnVision reader (Perkin Elmer).
Phospho-ERK immunoblot analysis: Western blots were performed by standard techniques and analyzed on an Odyssey Infrared Scanner (Li-COR Biosciences). […]

For `CCN(C)S(=O)(=O)Nc1ccc(F)c(C(=O)c2c[nH]c3ncc(-c4cnc(C5CC5)nc4)cc23)c1F` [Formula II, 5-(2-cyclopropylpyrimidin-5-yl)-3-[3-[[ethyl(methyl)sulfamoyl]amino]-2,6-difluoro-benzoyl]-1H-pyrrolo[2,3-b]pyridine], the “Change of pERK levels in A431 (in words)” value was “did not increase pERK levels”.
